The source of these data is patent publication US9365523B2, “Imidazolyl amide compounds and uses related thereto” (priority 2011, dated 2016).

One experiment has as its system MeV-Alaska. The experiment is described as follows: Antiviral activity of compound analogs against MeV-Alaska (tables 1-5). The experiment is classed as cell-based, measles virus. Particulars: Measles morbillivirus; Table 5.
Regarding `Cc1ccc(N(Cc2ccc(F)cc2)C(=O)C(C)Sc2nc(-c3ccccc3)c(-c3ccccc3)n2Cc2ccc(F)cc2)c(Cl)c1` (stereo not shown) [Compound 167], the EC50 – broadly, the concentration at which the effect is half-maximal – is more than 75 µM.
On the same count and under the same terms, the same measure for `COc1ccc(-n2c(SC(C)C(=O)N(C)c3ccc(Cl)cc3Cl)nc3ccccc32)cc1` (stereo not shown) [Compound 149]: more than 75 µM; for `Cc1ccc(NC(=O)C(C)Sc2cc3ccccc3n2-c2ccccc2)c(Cl)c1` (stereo not shown) [Compound 173]: more than 9.3 µM.
The same measure, in the same setting: with `Cc1ccc(NC(=O)C(C)Sc2nc(-c3ccccc3)c(-c3ccccc3)[nH]2)c(Cl)c1` (stereo not shown) [Compound 152] the figure was more than 75 µM; with `Cc1cccc(-n2c(SCCNc3ccccc3)nc3ccccc32)c1` [Compound 172], more than 75 µM; with `Cc1ccc(NC(=O)CSc2nc3cccnc3n2-c2ccccc2)c(Cl)c1` [Compound 147], 16 µM.
The same measure, in the same setting: the same measure for `COc1ccc(-n2c(CCC(=O)Nc3ncc(C)cc3Cl)nc3ccccc32)cc1` [Compound 135]: more than 75 µM; for `COc1ccc(-n2c([S+]([O-])CC(=O)Nc3ccc(C)cc3Cl)nc3ccccc32)cc1` (stereo not shown) [Compound 165]: 4.2 µM.
Compound `CCC(Sc1nc2ccccc2n1-c1ccc(OC)cc1)C(=O)Nc1ncc(Cl)cc1Cl` (stereo not shown) [Compound 131] returned an EC50 of 12.2 µM.
Take `O=C(CSc1nc2ccccc2n1-c1ccc(F)cc1)Nc1ncc(Cl)cc1Cl` [Compound 156]: it took 1.8 µM to reach a half-maximal effect (EC50).
The same measure, in the same setting: with `Cc1ccc(NC(=O)C(C)Sc2nc3ccccc3n2Cc2ccccc2)c(Cl)c1` (stereo not shown) [Compound 148] the figure was more than 75 µM.
Same read-out and setting: with `Cc1ccc(NC(=O)c2ccccc2-c2nc3ccccc3n2-c2ccccc2)c(Cl)c1` [Compound 163] the figure was more than 50 µM.
The same measure, in the same setting: the same measure for `COc1ccc(Cn2c(CCC(=O)Nc3ccc(C)cc3Cl)nc3ccccc32)cc1` [Compound 137]: more than 75 µM.
The compound `Cc1ccc(NC(=O)C(C)(C)Sc2nc3ccccc3n2-c2ccccc2)c(Cl)c1` [Compound 170] yielded a 50% effective concentration (EC50) of more than 75 µM.
Still for that read-out and setting: with `Cc1ccc(N(Cc2ccc(F)cc2)C(=O)CSc2nc(-c3ccccc3)c(-c3ccccc3)n2Cc2ccc(F)cc2)c(Cl)c1` [Compound 143] the figure was more than 75 µM; with `Cc1cc2nc(SC(C)C(=O)N(Cc3ccc(F)cc3)c3ncc(Cl)cc3Cl)n(Cc3ccc(F)cc3)c2cc1C` (stereo not shown) [Compound 157], more than 75 µM; with `COc1ccc(-n2c(S(=O)(=O)C(C)C(=O)Nc3ccc(C)cc3Cl)nc3ccccc32)cc1` (stereo not shown) [Compound 150], more than 150 µM.
`Cc1ccc(NC(=O)C(C)Sc2nc3ccccc3s2)c(Cl)c1` (stereo not shown) [Compound 130] displayed an EC50 of more than 75 µM.
Still for that read-out and setting: with `Cc1ccc(NC(=O)CSc2nc3ccc(Br)cc3n2Cc2ccc(F)cc2)c(Cl)c1` [Compound 169] the figure was more than 75 µM.
In turn, `COc1ccc(-n2c(/C=C/C(=O)Nc3ccc(C)cc3Cl)nc3ccccc32)cc1` [Compound 161] gave an EC50 of more than 75 µM.
Still for that read-out and setting: with `CCOC(=O)c1ccc2[nH]c(SC(C)C(=O)Nc3ncc(Cl)cc3Cl)nc2c1` (stereo not shown) [Compound 158] the figure was more than 75 µM; with `Cc1ccc(NC(=O)C(C)(C)[S+]([O-])c2nc3ccccc3n2-c2ccccc2)c(Cl)c1` (stereo not shown) [Compound 171], more than 75 µM; with `Cc1ccc(NC(=O)C(C)Sc2nc3cc(C)c(C)cc3n2Cc2ccc(F)cc2)c(Cl)c1` (stereo not shown) [Compound 129], 2.1 µM.
Consider `Cc1ccc(NC(=O)C(C)Sc2nc3ccccc3o2)c(Cl)c1` (stereo not shown) [Compound 151], for which the EC50 was more than 75 µM.
On to `Cc1cc2nc(SC(C)C(=O)Nc3ncc(Cl)cc3Cl)[nH]c2cc1C` (stereo not shown) [Compound 133], for which the concentration for a half-maximal effect (EC50) was more than 75 µM.
`Cc1ccc(NC(=O)CSc2nc(-c3ccccc3)c(-c3ccccc3)n2Cc2ccc(F)cc2)c(Cl)c1` [Compound 168] came in with a 50% effective concentration (EC50) of more than 75 µM.

The same experiment, now with this note: Table 1.
In the case of `COc1ccc(-n2c(SC(C)C(=O)Nc3nccs3)nc3ccccc32)cc1` (stereo not shown) [Compound 36], the concentration for a half-maximal effect (EC50) was found to be 4 µM.
For `COc1ccc(-n2c(SC(C)C(=O)Nc3ccc(C#N)cn3)nc3ccccc32)cc1` (stereo not shown) [Compound 26], the EC50 is more than 75 µM.
Same read-out and setting: with `COc1ccc(-n2c(SC(C)C(=O)Nc3cc(C)on3)nc3ccccc32)cc1` (stereo not shown) [Compound 55] the figure was 0.49 µM; with `COc1ccc(-n2c(SC(C)C(=O)Nc3ccc(N)cc3C)nc3ccccc32)cc1` (stereo not shown) [Compound 52], more than 9.3 µM.
Consider `COc1ccc(-n2c(SC(C)C(=O)Nc3cccc(N)c3)nc3ccccc32)cc1` (stereo not shown) [Compound 51], for which the EC50 was determined as 7 µM. That is a single-digit micromolar value.
Still for that read-out and setting: the same measure for `COc1ccc(-n2c(SC(C)C(=O)Nc3ccc(C)cc3F)nc3ccccc32)cc1` (stereo not shown) [Compound 31]: 0.2 µM; for `COc1ccc(-n2c(SC(C)C(=O)Nc3cc(Br)ccc3Br)nc3ccccc32)cc1` (stereo not shown) [Compound 2]: 1.7 µM; for `COc1ccc(-n2c(SC(C)C(=O)Nc3nc(C)c(Cl)cc3Cl)nc3ccccc32)cc1` (stereo not shown) [Compound 43]: 0.3 µM.
Still for that read-out and setting: the same measure for `COc1ccc(-n2c(SC(C)C(=O)Nc3nc(Cl)ccc3Cl)nc3ccccc32)cc1` (stereo not shown) [Compound 4]: 0.3 µM.
In the case of `COc1ccc(-n2c(SC(C)C(=O)Nc3ncc(Br)cn3)nc3ccccc32)cc1` (stereo not shown) [Compound 8], the EC50 came out at 4.1 µM.
On the same count and under the same terms, the same measure for `COc1ccc(-n2c(SC(C)C(=O)Nc3ccc(Cl)cc3C)nc3ccccc32)cc1` (stereo not shown) [Compound 20]: 1.4 µM; for `COc1ccc(-n2c(SC(C)C(=O)Nc3ccc(C)c(N)c3)nc3ccccc32)cc1` (stereo not shown) [Compound 16]: 2.3 µM; for `COc1ccc(-n2c(SC(C)C(=O)Nc3nc(Cl)cc(Cl)n3)nc3ccccc32)cc1` (stereo not shown) [Compound 44]: more than 75 µM.
For the compound `COc1ccc(-n2c(SC(C)C(=O)Nc3ccc(Cl)cc3Cl)nc3ccccc32)cc1` (stereo not shown) [Compound 12], the midpoint of the response, the EC50, lay at 0.4 µM.
Still for that read-out and setting: with `COc1ccc(-n2c(SC(C)C(=O)Nc3nc(C)c(Br)cc3Br)nc3ccccc32)cc1` (stereo not shown) [Compound 41] the figure was 0.5 µM; with `COc1ccc(-n2c(SC(C)C(=O)Nc3nc(C)cs3)nc3ccccc32)cc1` (stereo not shown) [Compound 35], 3.6 µM.
Same read-out and setting: with `COc1ccc(-n2c(SC(C)C(=O)Nc3nc(Cl)cc(OC)n3)nc3ccccc32)cc1` (stereo not shown) [Compound 27] the figure was more than 75 µM.
Same read-out and setting: the same measure for `COc1ccc(-n2c(SC(C)C(=O)Nc3cccnc3)nc3ccccc32)cc1` (stereo not shown) [Compound 23]: 8.4 µM; for `COc1ccc(-n2c(SC(C)C(=O)Nc3c(C)cccc3Cl)nc3ccccc32)cc1` (stereo not shown) [Compound 39]: 3.9 µM.
In the case of `COc1ccc(-n2c(SC(C)C(=O)Nc3ncc(C)cc3Cl)nc3ccccc32)cc1` (stereo not shown) [Compound 5], the EC50 came to 0.04 µM.

The same experiment, now with this note: Table 2.
In turn, `Cc1ccc(NC(=O)C(C)Sc2nc3ccccc3n2-c2ccccc2CN2CCOCC2)c(Cl)c1` (stereo not shown) [Compound 79] returned an EC50 of 0.3 µM. This counts as sub-micromolar.
`COc1ccc(-n2c(SC(C)C(=O)Nc3ccc(C)cc3Cl)nc3ccccc32)cc1` (stereo not shown) [Compound 86] gave a concentration for a half-maximal effect (EC50) of 0.17 µM.
The same measure, in the same setting: with `CCOc1ccc(-n2c(SC(C)C(=O)Nc3ccc(C)cc3Cl)nc3ccccc32)cc1` (stereo not shown) [Compound 73] the figure was 0.05 µM; with `CC(=O)NCCOc1ccc(-n2c(SC(C)C(=O)Nc3ccc(C)cc3Cl)nc3ccccc32)cc1` (stereo not shown) [Compound 61], more than 10 µM.
Still for that read-out and setting: the same measure for `Cc1ccc(NC(=O)C(C)Sc2nc3ccccc3n2C(=O)c2ccccc2)c(Cl)c1` (stereo not shown) [Compound 91]: more than 9.3 µM.
Still for that read-out and setting: with `Cc1ccc(NC(=O)C(C)Sc2nc3ccccc3n2C2CCN(C(=O)OC(C)(C)C)CC2)c(Cl)c1` (stereo not shown) [Compound 93] the figure was 0.6 µM; with `COC(=O)COc1ccc(-n2c(SC(C)C(=O)Nc3ccc(C)cc3Cl)nc3ccccc32)cc1` (stereo not shown) [Compound 69], more than 9.3 µM; with `Cc1ccc(NC(=O)C(C)Sc2nc3ccccc3n2S(=O)(=O)C2CCCCC2)c(Cl)c1` (stereo not shown) [Compound 89], 0.61 µM.
In turn, `COc1ccc(Cn2c(SC(C)C(=O)Nc3ccc(C)cc3Cl)nc3ccccc32)cc1` (stereo not shown) [Compound 85] registered an EC50 of 0.4 µM.
Still for that read-out and setting: the same measure for `Cc1ccc(NC(=O)C(C)Sc2nc3ccccc3n2-c2ccc(OCCO)cc2)c(Cl)c1` (stereo not shown) [Compound 58]: 4.6 µM; for `Cc1ccc(NC(=O)C(C)Sc2nc3ccccc3n2-c2cccc(CN3CCN(C)CC3)c2)c(Cl)c1` (stereo not shown) [Compound 65]: 1.3 µM; for `Cc1ccc(NC(=O)C(C)Sc2nc3ccccc3n2-c2ccccc2CN2CCN(C)CC2)c(Cl)c1` (stereo not shown) [Compound 67]: 0.18 µM.
On the same count and under the same terms, with `Cc1ccc(NC(=O)C(C)Sc2nc3ccccc3n2-c2ccccc2)c(Cl)c1` (stereo not shown) [Compound 72] the figure was 0.09 µM; with `COC(=O)c1ccc(-n2c(SC(C)C(=O)Nc3ccc(C)cc3Cl)nc3ccccc32)cc1` (stereo not shown) [Compound 99], 1.1 µM; with `Cc1ccc(NC(=O)C(C)Sc2nc3ccccc3n2C2CCN(C)CC2)c(Cl)c1` (stereo not shown) [Compound 94], 1.5 µM.
The same measure, in the same setting: the same measure for `Cc1ccc(NC(=O)C(C)Sc2nc3ccccc3n2-c2ccc(N=[N+]=[N-])cc2)c(Cl)c1` (stereo not shown) [Compound 95]: 0.31 µM; for `COc1cccc(-n2c(SC(C)C(=O)Nc3ccc(C)cc3Cl)nc3ccccc32)c1` (stereo not shown) [Compound 71]: 0.6 µM.
In turn, `Cc1ccc(NC(=O)C(C)Sc2nc3ccccc3n2-c2ccc(O)cc2)c(Cl)c1` (stereo not shown) [Compound 76] yielded an EC50 of 3.8 µM.
As for `Cc1ccc(NC(=O)C(C)Sc2nc3ccccc3n2-c2ccc(OCC(=O)O)cc2)c(Cl)c1` (stereo not shown) [Compound 68], the EC50 was more than 9.3 µM.
On the same count and under the same terms, the same measure for `COc1cc(OC)cc(-n2c(SC(C)C(=O)Nc3ccc(C)cc3Cl)nc3ccccc32)c1` (stereo not shown) [Compound 87]: 0.4 µM; for `Cc1cccc(-n2c(SC(C)C(=O)Nc3ccc(C)cc3Cl)nc3ccccc32)c1` (stereo not shown) [Compound 75]: 0.1 µM.

The same experiment, now with this note: Table 3.
The compound `COc1cc(OC)cc(-n2c(SC(C)C(=O)Nc3ncc(C)cc3Cl)nc3ccccc32)c1` (stereo not shown) [Compound 118] registered an EC50 of 0.8 µM.
Still for that read-out and setting: with `Cc1cnc(NC(=O)C(C)Sc2nc3ccccc3n2-c2ccccc2)c(Cl)c1` (stereo not shown) [Compound 109] the figure was 0.13 µM; with `CC(Sc1nc2ccccc2n1-c1ccc(O)cc1)C(=O)Nc1ncc(Cl)cc1Cl` (stereo not shown) [Compound 103], 7.7 µM.
On the same count and under the same terms, with `CCOc1ccc(-n2c(SC(C)C(=O)Nc3ncc(Cl)cc3Cl)nc3ccccc32)cc1` (stereo not shown) [Compound 102] the figure was 0.2 µM; with `Cc1cccc(-n2c(SC(C)C(=O)Nc3ncc(C)cc3Cl)nc3ccccc32)c1` (stereo not shown) [Compound 119], 0.09 µM; with `CCOc1ccc(-n2c(SC(C)C(=O)Nc3cc(C)cc(C)n3)nc3ccccc32)cc1` (stereo not shown) [Compound 115], 1.5 µM.
